Test results as given in ChEMBL document CHEMBL3885861, “Open TG-GATES”.

Species on record: Rattus norvegicus
Assay: Open TG-GATES - Regimen: Daily Repeat
Type: toxicity, organism-based, Sprague-Dawley
Parameters: regimen Daily Repeat, gender Male, age 6 weeks
Conditions: in vivo, po, 0 mg/kg, route gavage, dose level Control; for APTT / Bas / Eos / Fbg / Hb / Ht / Lym / MCH / MCHC / MCV / Mono / Neu / PT / Plat / RBC / Ret / WBC: tissue Blood; for KIDNEY_L / KIDNEY_R / KIDNEY_TOTAL: tissue Kidney; for LIVER: tissue Liver; for A/G / ALP / ALT / AST / BUN / CRE / Ca / Cl / DBIL / GLC / IP / K / LDH / Na / PL / RALB / TBIL / TC / TG / TP / gamma-GTP: tissue Plasma

CCOC(=O)CCC(=O)O[C@H]1[C@H](O[C@@H]2[C@@H](C)[C@H](O[C@H]3C[C@@](C)(OC)[C@@H](O)[C@H](C)O3)[C@@H](C)C(=O)O[C@H](CC)[C@@](C)(O)[C@H](O)[C@@H](C)C(=O)[C@H](C)C[C@@]2(C)O)O[C@H](C)C[C@@H]1N(C)C [ERYTHROMYCIN ETHYLSUCCINATE] gave a TERMINAL_BW (72 h, time 3 day) of 237.5 g, an APTT (72 h, time 3 day) of 21.3 s and a Bas (72 h, time 3 day) of 0%. For the same compound, the Eos (72 h, time 3 day) was 1%, the Fbg (72 h, time 3 day) was 295.4 mg/dL and the Hb (72 h, time 3 day) was 13.4 g/dL. For the same compound, the Ht (72 h, time 3 day) was 39.6%, the Lym (72 h, time 3 day) was 78.6% and the MCH (72 h, time 3 day) was 21.3 pg. For the same compound, the MCHC (72 h, time 3 day) was 33.7%, the MCV (72 h, time 3 day) was 63 fL and the Mono (72 h, time 3 day) was 3.4%. The Neu (72 h, time 3 day) was 16.2%, the PT (72 h, time 3 day) was 16.3 s and the Plat (72 h, time 3 day) was 124.3 x10_4/uL. The RBC (72 h, time 3 day) was 628.8 x10_4/ul, the Ret (72 h, time 3 day) was 6.2% and the WBC (72 h, time 3 day) was 96.6 x10_2/uL. The KIDNEY_L (72 h, time 3 day) was 1.1 g, the KIDNEY_R (72 h, time 3 day) was 1.1 g and the KIDNEY_TOTAL (72 h, time 3 day) was 2.1 g. It also gave an LIVER (72 h, time 3 day) of 10.7 g, an A/G (72 h, time 3 day) of 1.2 and an ALP (72 h, time 3 day) of 1575.2 IU/L. For the same compound, the ALT (72 h, time 3 day) was 38.2 IU/L, the AST (72 h, time 3 day) was 68.6 IU/L and the BUN (72 h, time 3 day) was 17.8 mg/dL. For the same compound, the CRE (72 h, time 3 day) was 0.2 mg/dL, the Ca (72 h, time 3 day) was 10.1 mg/dL and the Cl (72 h, time 3 day) was 107.6 meq/L. The DBIL (72 h, time 3 day) was 0 mg/dL, the GLC (72 h, time 3 day) was 198.2 mg/dL and the IP (72 h, time 3 day) was 6.6 mg/dL. It also gave a K (72 h, time 3 day) of 4.3 meq/L, an LDH (72 h, time 3 day) of 181.8 IU/L and a Na (72 h, time 3 day) of 141 meq/L. It also gave a PL (72 h, time 3 day) of 139.8 mg/dL, an RALB (72 h, time 3 day) of 2.9 g/dL and a TBIL (72 h, time 3 day) of 0.016 mg/dL. The TC (72 h, time 3 day) was 71.4 mg/dL, the TG (72 h, time 3 day) was 91 mg/dL and the TP (72 h, time 3 day) was 5.4 g/dL. For the same compound, the gamma-GTP (72 h, time 3 day) was 1.2 IU/L, the TERMINAL_BW ([…], time 7 day) was 272.7 g and the TERMINAL_BW ([…], time 14 day) was 330.3 g. For the same compound, the TERMINAL_BW ([…], time 28 day) was 372.4 g, the APTT ([…], time 7 day) was 20.5 s and the Bas ([…], time 7 day) was 0%. The Eos ([…], time 7 day) was 1%, the Fbg ([…], time 7 day) was 307.2 mg/dL and the Hb ([…], time 7 day) was 14.1 g/dL. The Ht ([…], time 7 day) was 41.9%, the Lym ([…], time 7 day) was 78.2% and the MCH ([…], time 7 day) was 21 pg. For the same compound, the MCHC ([…], time 7 day) was 33.6%, the MCV ([…], time 7 day) was 62.4 fL and the Mono ([…], time 7 day) was 2.4%. For the same compound, the Neu ([…], time 7 day) was 17.4%, the PT ([…], time 7 day) was 16.6 s and the Plat ([…], time 7 day) was 119.4 x10_4/uL. It also gave an RBC ([…], time 7 day) of 673.2 x10_4/ul, a Ret ([…], time 7 day) of 6.2% and a WBC ([…], time 7 day) of 121.5 x10_2/uL. It also gave an APTT ([…], time 14 day) of 22.3 s, a Bas ([…], time 14 day) of 0% and an Eos ([…], time 14 day) of 1%. For the same compound, the Fbg ([…], time 14 day) was 317.8 mg/dL, the Hb ([…], time 14 day) was 13.9 g/dL and the Ht ([…], time 14 day) was 40.4%. It also gave a Lym ([…], time 14 day) of 80.2%, an MCH ([…], time 14 day) of 21.2 pg and an MCHC ([…], time 14 day) of 34.5%. It also gave an MCV ([…], time 14 day) of 61.5 fL, a Mono ([…], time 14 day) of 2.4% and a Neu ([…], time 14 day) of 14.8%. For the same compound, the PT ([…], time 14 day) was 16.3 s, the Plat ([…], time 14 day) was 104.3 x10_4/uL and the RBC ([…], time 14 day) was 656.6 x10_4/ul. The Ret ([…], time 14 day) was 5.2%, the WBC ([…], time 14 day) was 110.8 x10_2/uL and the APTT ([…], time 28 day) was 24.4 s. The Bas ([…], time 28 day) was 0%, the Eos ([…], time 28 day) was 1% and the Fbg ([…], time 28 day) was 317.2 mg/dL. The Hb ([…], time 28 day) was 15.2 g/dL, the Ht ([…], time 28 day) was 44% and the Lym ([…], time 28 day) was 81.8%. It also gave an MCH ([…], time 28 day) of 19.4 pg, an MCHC ([…], time 28 day) of 34.6% and an MCV ([…], time 28 day) of 56.2 fL. The Mono ([…], time 28 day) was 2.8%, the Neu ([…], time 28 day) was 13% and the PT ([…], time 28 day) was 16.4 s. The Plat ([…], time 28 day) was 99.6 x10_4/uL, the RBC ([…], time 28 day) was 783.8 x10_4/ul and the Ret ([…], time 28 day) was 2.7%. It also gave a WBC ([…], time 28 day) of 109.9 x10_2/uL, a KIDNEY_L ([…], time 7 day) of 1.1 g and a KIDNEY_R ([…], time 7 day) of 1.1 g. The KIDNEY_TOTAL ([…], time 7 day) was 2.2 g, the KIDNEY_L ([…], time 14 day) was 1.3 g and the KIDNEY_R ([…], time 14 day) was 1.3 g. For the same compound, the KIDNEY_TOTAL ([…], time 14 day) was 2.6 g, the KIDNEY_L ([…], time 28 day) was 1.4 g and the KIDNEY_R ([…], time 28 day) was 1.4 g. It also gave a KIDNEY_TOTAL ([…], time 28 day) of 2.8 g, an LIVER ([…], time 7 day) of 12.3 g and an LIVER ([…], time 14 day) of 14.7 g. The LIVER ([…], time 28 day) was 14.6 g, the A/G ([…], time 7 day) was 1.1 and the ALP ([…], time 7 day) was 1670.4 IU/L. For the same compound, the ALT ([…], time 7 day) was 43 IU/L, the AST ([…], time 7 day) was 72.2 IU/L and the BUN ([…], time 7 day) was 20.4 mg/dL. For the same compound, the CRE ([…], time 7 day) was 0.2 mg/dL, the Ca ([…], time 7 day) was 10.7 mg/dL and the Cl ([…], time 7 day) was 107.6 meq/L. It also gave a DBIL ([…], time 7 day) of 0 mg/dL, a GLC ([…], time 7 day) of 216.8 mg/dL and an IP ([…], time 7 day) of 7.3 mg/dL. It also gave a K ([…], time 7 day) of 4.3 meq/L, an LDH ([…], time 7 day) of 201.8 IU/L and a Na ([…], time 7 day) of 141.2 meq/L. The PL ([…], time 7 day) was 155.2 mg/dL, the RALB ([…], time 7 day) was 2.9 g/dL and the TBIL ([…], time 7 day) was 0 mg/dL. For the same compound, the TC ([…], time 7 day) was 70.8 mg/dL, the TG ([…], time 7 day) was 133.4 mg/dL and the TP ([…], time 7 day) was 5.6 g/dL. The gamma-GTP ([…], time 7 day) was 1.4 IU/L, the A/G ([…], time 14 day) was 1.1 and the ALP ([…], time 14 day) was 1330.4 IU/L. It also gave an ALT ([…], time 14 day) of 46.6 IU/L, an AST ([…], time 14 day) of 76 IU/L and a BUN ([…], time 14 day) of 21 mg/dL. For the same compound, the CRE ([…], time 14 day) was 0.2 mg/dL, the Ca ([…], time 14 day) was 10.5 mg/dL and the Cl ([…], time 14 day) was 105.2 meq/L. For the same compound, the DBIL ([…], time 14 day) was 0 mg/dL, the GLC ([…], time 14 day) was 207.2 mg/dL and the IP ([…], time 14 day) was 7.1 mg/dL. For the same compound, the K ([…], time 14 day) was 4.5 meq/L, the LDH ([…], time 14 day) was 208.6 IU/L and the Na ([…], time 14 day) was 141.4 meq/L. For the same compound, the PL ([…], time 14 day) was 153.4 mg/dL, the RALB ([…], time 14 day) was 2.9 g/dL and the TBIL ([…], time 14 day) was 0 mg/dL. The TC ([…], time 14 day) was 73 mg/dL, the TG ([…], time 14 day) was 135.2 mg/dL and the TP ([…], time 14 day) was 5.7 g/dL. The gamma-GTP ([…], time 14 day) was 2.2 IU/L, the A/G ([…], time 28 day) was 1.1 and the ALP ([…], time 28 day) was 1212.8 IU/L. The ALT ([…], time 28 day) was 45.8 IU/L, the AST ([…], time 28 day) was 71.6 IU/L and the BUN ([…], time 28 day) was 19.6 mg/dL. For the same compound, the CRE ([…], time 28 day) was 0.2 mg/dL, the Ca ([…], time 28 day) was 10.4 mg/dL and the Cl ([…], time 28 day) was 106.6 meq/L. The DBIL ([…], time 28 day) was 0 mg/dL, the GLC ([…], time 28 day) was 189.4 mg/dL and the IP ([…], time 28 day) was 6.2 mg/dL. The K ([…], time 28 day) was 4.1 meq/L, the LDH ([…], time 28 day) was 130.6 IU/L and the Na ([…], time 28 day) was 141 meq/L. For the same compound, the PL ([…], time 28 day) was 135.8 mg/dL, the RALB ([…], time 28 day) was 3 g/dL and the TBIL ([…], time 28 day) was 0.01 mg/dL. The TC ([…], time 28 day) was 62 mg/dL, the TG ([…], time 28 day) was 118.4 mg/dL and the TP ([…], time 28 day) was 5.9 g/dL. For the same compound, the gamma-GTP ([…], time 28 day) was 2.8 IU/L.
